According to PMC12549899 (Nature Communications, 2025):

Molecular target: T1, DrOTOP1 E384A (Danio rerio, UniProt Q7ZWK8, E384A)
T1 construct: A previously generated codon-optimized full-length DrOTOP1[8]; (UniProt: Q7ZWK8) construct; expressed in transfected cells; host or cells: HEK-293 (CRL-1573, ATCC)
T1 sequence (Q7ZWK8 1-586 E384A): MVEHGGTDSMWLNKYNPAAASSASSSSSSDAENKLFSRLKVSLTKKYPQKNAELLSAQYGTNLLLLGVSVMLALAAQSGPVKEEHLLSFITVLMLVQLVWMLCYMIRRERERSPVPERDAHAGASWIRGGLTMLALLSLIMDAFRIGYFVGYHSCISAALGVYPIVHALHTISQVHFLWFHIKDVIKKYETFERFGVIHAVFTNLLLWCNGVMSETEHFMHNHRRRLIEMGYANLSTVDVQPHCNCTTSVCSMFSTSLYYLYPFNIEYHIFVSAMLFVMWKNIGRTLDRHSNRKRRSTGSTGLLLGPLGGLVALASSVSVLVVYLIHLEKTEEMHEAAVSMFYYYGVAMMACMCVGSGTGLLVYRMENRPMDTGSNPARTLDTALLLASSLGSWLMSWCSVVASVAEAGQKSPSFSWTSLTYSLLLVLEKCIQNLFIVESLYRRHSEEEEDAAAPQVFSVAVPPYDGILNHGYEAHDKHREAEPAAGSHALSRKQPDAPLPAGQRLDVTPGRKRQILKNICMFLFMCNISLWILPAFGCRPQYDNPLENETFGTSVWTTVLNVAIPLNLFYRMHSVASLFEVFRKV
Assay: Whole-cell patch-clamp, inhibition of acid-evoked currents, DrOTOP1 E384A (central site)
Type: cell-based, zebrafish (Danio rerio)
Source text: To functionally test the significance of the two binding sites identified by cryo-EM, we generated point mutations of DrOTOP1 using the binding poses and conformational changes observed in DrOTOP1_C2.2 to guide our mutations. As per the binding pose that best fits our cryo-EM density, C2.2 forms the following interactions in the outer site: hydrophobic packing against many non-polar residues W126, G130, M133, L134, F271, F570, and M573, and π-stacking with W532 (Fig. 5A). In addition, C2.2 could potentially form H-bonds with E267, if the sidechain is protonated or a water bridge is present, and with H574 if it moves closer (Fig. 5A). Likewise, C2.36 presents a heterocyclic nitrogen that can potentially form a H-bond with E267, similarly, provided a protonation or water bridge is present (Fig. 5B). In addition, C2.36 forms a T-shaped π-stacking interaction with H574, whose sidechain has rotated 90 degrees (compared to DrOTOP1_apo), presumably to accommodate the interaction (Fig. 5B). Considering other inhibitors discovered from the second round of screening, many contain functional groups like the carbonyl groups of Group 1 molecules and the heterocyclic nitrogen atoms of Group 2 molecules (Supplementary Fig. 3E), that can potentially form similar H-bonds with E267 as C2.2 and C2.36, assuming the binding modes are similar. In the central site, C2.2 binds with the following interactions: hydrophobic packing with residues V201, F271, A274, V278, and A388, π-stacking with F277, and H-bonding with E384 (Fig. 5C).
We next tested mutations of the central site (L205W, A274W, F277A, E384A L385W, A388W). V201W and S389W, two additional central site mutations, were excluded from the study due to complete loss of channel activity. Mutation of E384 to alanine is expected to disrupt potential hydrogen bonding with C2.2. Of note, E384 is one of the few charged residues in the central pocket and could form a salt bridge with K281, that could also be affected by the mutation. Additionally, in our DrOTOP1_C2.2 structure, we observed that F277 underwent a substantial rearrangement, likely to avoid steric clash and accommodate C2.2 binding. Thus, we introduced the F277A mutation to test if removing this steric clash would enhance C2.2 inhibition.
HEK-293 cells (CRL-1573, ATCC) were cultured in DMEM (Thermofisher 11995073) containing 10% fetal bovine serum (Life Technology 16000044) and Penicillin-Streptomycin (100 I.U./mL) and (100 µg/mL), respectively. Cells were transfected with WT DrOTOP1 or mutant DrOTOP1 channels in 35 mm petri dishes, with ~ 500 ng DNA and 2 μL TransIT-LT1 transfection reagent (Mirus Bio Corporation, Cat # MIR2300) following the manufacturer’s protocol. All constructs were subcloned into a pcDNA3.1 vector that adds an N-terminal fusion tag consisting of an octahistidine tag followed by eGFP, a Gly-Thr-Gly-Thr linker and a 3C protease cleavage site ([…]) followed by WT DrOTOP1, WT mOTOP1, WT hOTOP1, or mutated DrOTOP1. Point mutations were generated via In-Fusion Cloning (Takara) using single-stranded DNA primers generated through IDT and sequence confirmed by Sanger sequencing (GeneWiz).
Whole-cell patch-clamp recording was performed as previously described[6],[22],[25]. Recordings were made with an Axopatch 200B amplifier, digitized with a Digidata 1322a 16-bit data acquisition system, acquired with pClamp 8.2 and analyzed with Clampfit 10 (Molecular Devices). Recordings were sampled at 5 kHz and filtered at 1 kHz. Patch Pipettes with resistance of […] were fabricated from borosilicate glass, and only recordings with a giga-Ohm seal were used in analysis. Membrane potential was held at −80 mV for the duration of recordings. At the beginning of recordings and between, cells were washed with Tyrode’s solution (see below). […]

## C=C(C)COc1ccccc1NC(=O)c1nc[nH]c1C [C2.2]
  Hill coefficient: 1.184
3 µM, single cells
  inhibition at 3 µM: 10.2%
10 µM, single cells or mean
  inhibition at 10 µM: ~40%
30 µM, single cells
  inhibition at 30 µM: 70.7%
100 µM, single cells
  inhibition at 100 µM: 96.3%
300 µM, single cells
  inhibition at 300 µM: 97.3%
pH 5.5
  IC50: 15.3 µM
